Calls of active or inactive are those of the source. The rule behind the calls is not given here.
Tested on: M. tuberculosis BioA-TetON overexpression strain, growth IC90
Experiment: PubChem AID 743351

For `CN1c2ccc(-c3ccc(F)cc3)cc2[C@H]2[C@H](CCN2C(=O)Cc2cccnc2)[C@H]1CO`, which IC90 is on record?
The IC90 was > 50 µM (inactive).

For `CNC(=O)c1ccc(N2CCN(C(=O)c3ccc4c(c3)OCO4)CC2)cc1`, which IC90 is on record?
Its IC90 is > 50 µM (inactive).

`CN1c2ccc(-c3cccc(F)c3)cc2[C@H]2[C@H](CCN2C(=O)c2ccc3c(c2)OCO3)[C@@H]1CO` was tested. Which IC90 did it give?
Its IC90 is > 50 µM (inactive).

Which IC90 does the source give for `CC(C)NC(=O)N1CC[C@@H]2[C@@H](CO)N(C)c3ccc(-c4ccc(F)cc4)cc3[C@@H]21` here?
Its IC90 is > 50 µM (inactive).

For `COc1ccc(NC(=O)N2CC[C@@H]3[C@@H](CO)N(C)c4ccc(-c5ccc(F)cc5)cc4[C@@H]32)cc1`, which IC90 is on record?
Its IC90 is > 50 µM (inactive).

`CC(=O)c1ccc(N2CCN(C(=O)c3ccccc3F)CC2)cc1` was tested. Which IC90 did it give?
The IC90 was > 50 µM (inactive).

How did the IC90 turn out when `CN1c2ccc(-c3cccc(F)c3)cc2[C@H]2[C@H](CCN2C(=O)CCCCCCN)[C@H]1CO` was run?
Its IC90 is > 50 µM (inactive).

Which IC90 does the source give for `CCC(=O)N1CC[C@@H]2[C@@H](CO)N(C)c3ccc(-c4ccc(F)cc4)cc3[C@@H]21` here?
The IC90 was > 50 µM (inactive).

How did the IC90 turn out when `CN1c2ccc(-c3cccc(F)c3)cc2[C@@H]2[C@@H](CCN2C(=O)c2ccc3c(c2)OCO3)[C@@H]1CO` was run?
Its IC90 is > 50 µM (inactive).

With `CN1c2ccc(-c3cccc(F)c3)cc2[C@H]2[C@H](CCN2C(=O)Cc2cccnc2)[C@H]1CO` as the compound, how does the IC90 read?
Its IC90 is > 50 µM (inactive).

With `COc1ccc(NC(=O)N2CC[C@@H]3[C@@H](CO)N(C)c4ccc(-c5cccc(F)c5)cc4[C@@H]32)cc1` as the compound, how does the IC90 read?
Its IC90 is > 50 µM (inactive).

For `CC(=O)c1ccc(N2CCN(C(=O)c3ccccc3Cl)CC2)cc1`, which IC90 is on record?
Its IC90 is > 50 µM (inactive).

Which IC90 does the source give for `CC(=O)c1ccc(N2CC3(CN(C(=O)c4ccc5c(c4)OCO5)C3)C2)cc1` here?
The IC90 was > 50 µM (inactive).

With `CN1c2ccc(-c3ccc(F)cc3)cc2[C@H]2[C@H](CCN2C(=O)Nc2cc(F)ccc2F)[C@H]1CO` as the compound, how does the IC90 read?
Its IC90 is > 50 µM (inactive).

`CCCCCCCC(=O)N1CC[C@@H]2[C@@H](CO)N(C)c3ccc(-c4cccc(F)c4)cc3[C@@H]21` was tested. Which IC90 did it give?
The IC90 was > 50 µM (inactive).

For `CN1c2ccc(-c3ccc(F)cc3)cc2[C@H]2[C@H](CCN2C(=O)Cc2ccccn2)[C@H]1CO`, which IC90 is on record?
Its IC90 is > 50 µM (inactive).

`COCC(=O)N1CC[C@@H]2[C@@H](CO)N(C)c3ccc(-c4cccc(F)c4)cc3[C@@H]21` was tested. Which IC90 did it give?
The IC90 was > 50 µM (inactive).

For `COc1cccc(NC(=O)N2CC[C@@H]3[C@@H](CO)N(C)c4ccc(-c5cccc(F)c5)cc4[C@@H]32)c1`, which IC90 is on record?
Its IC90 is > 50 µM (inactive).

Which IC90 does the source give for `CC(=O)c1ccc(NCCNC(=O)c2ccc3c(c2)OCO3)cc1` here?
The IC90 was > 50 µM (inactive).

How did the IC90 turn out when `CN1c2ccc(-c3cccc(F)c3)cc2[C@H]2[C@H](CCN2C(=O)Cc2ccccc2)[C@H]1CO` was run?
Its IC90 is > 50 µM (inactive).

For `CN1c2ccc(-c3cccc(F)c3)cc2[C@@H]2[C@@H](CCN2C(=O)c2ccc3c(c2)OCO3)[C@H]1CO`, which IC90 is on record?
The IC90 was > 50 µM (inactive).

With `COC(=O)CCCCCCC(=O)N1CC[C@@H]2[C@@H](CO)N(C)c3ccc(-c4cccc(F)c4)cc3[C@@H]21` as the compound, how does the IC90 read?
Its IC90 is > 50 µM (inactive).

With `CC(C)NC(=O)N1CC[C@@H]2[C@@H](CO)N(C)c3ccc(-c4cccc(F)c4)cc3[C@@H]21` as the compound, how does the IC90 read?
Its IC90 is > 50 µM (inactive).

How did the IC90 turn out when `CC(=O)c1ccc(N2CCN(C(=O)c3ccc4c(c3)OCO4)CC2)cc1` was run?
Its IC90 is > 50 µM (inactive).

Which IC90 does the source give for `CCCNC(=O)N1CC[C@@H]2[C@@H](CO)N(C)c3ccc(-c4ccc(F)cc4)cc3[C@@H]21` here?
Its IC90 is > 50 µM (inactive).

Which IC90 does the source give for `COc1ccccc1NC(=O)N1CC[C@@H]2[C@@H](CO)N(C)c3ccc(-c4cccc(F)c4)cc3[C@@H]21` here?
Its IC90 is > 50 µM (inactive).

Which IC90 does the source give for `CC(=O)c1ccc(N2CCN(C(=O)c3ccc4c(c3)OCO4)[C@H](C)C2)cc1` here?
Its IC90 is > 50 µM (inactive).

How did the IC90 turn out when `COc1ccccc1C(=O)N1CCN(c2ccc(C(C)=O)cc2)CC1` was run?
The IC90 was > 50 µM (inactive).

For `CNS(=O)(=O)c1ccc(N2CCN(C(=O)c3ccc4c(c3)OCO4)CC2)cc1`, which IC90 is on record?
Its IC90 is > 50 µM (inactive).

For `CN1c2ccc(-c3cccc(F)c3)cc2[C@H]2[C@H](CCN2C(=O)CCCCCCC(=O)O)[C@H]1CO`, which IC90 is on record?
Its IC90 is > 50 µM (inactive).

`COc1ccccc1NC(=O)N1CC[C@@H]2[C@@H](CO)N(C)c3ccc(-c4ccc(F)cc4)cc3[C@@H]21` was tested. Which IC90 did it give?
Its IC90 is > 50 µM (inactive).

How did the IC90 turn out when `CN(C)C(=O)c1ccc(N2CCN(C(=O)c3ccc4c(c3)OCO4)CC2)cc1` was run?
Its IC90 is > 50 µM (inactive).

Which IC90 does the source give for `CN1c2ccc(-c3cccc(F)c3)cc2[C@H]2[C@H](CCN2C(=O)Nc2ccccc2F)[C@H]1CO` here?
The IC90 was > 50 µM (inactive).

Which IC90 does the source give for `CN1c2ccc(-c3ccc(F)cc3)cc2[C@H]2[C@H](CCN2C(=O)Nc2ccc(F)cc2)[C@H]1CO` here?
The IC90 was > 50 µM (inactive).

Source: PubChem BioAssay AID743351 (Broad Institute, 2014)
